Here are results for eleven compounds from US20150315188A1, “COMPOUNDS AND METHODS FOR TREATMENT OF HYPERTENSION” (MEDIVATION TECHNOLOGIES, INC., priority 2012, published 2015).

Where two headings read alike, the source gives them in different places.

Parameters in all cases: purchased Milipore (Millipore)
In assay [1] the target is T1, Human adrenergic α2B receptor (Homo sapiens, UniProt P18089).
T1 sequence (P18089 1-450): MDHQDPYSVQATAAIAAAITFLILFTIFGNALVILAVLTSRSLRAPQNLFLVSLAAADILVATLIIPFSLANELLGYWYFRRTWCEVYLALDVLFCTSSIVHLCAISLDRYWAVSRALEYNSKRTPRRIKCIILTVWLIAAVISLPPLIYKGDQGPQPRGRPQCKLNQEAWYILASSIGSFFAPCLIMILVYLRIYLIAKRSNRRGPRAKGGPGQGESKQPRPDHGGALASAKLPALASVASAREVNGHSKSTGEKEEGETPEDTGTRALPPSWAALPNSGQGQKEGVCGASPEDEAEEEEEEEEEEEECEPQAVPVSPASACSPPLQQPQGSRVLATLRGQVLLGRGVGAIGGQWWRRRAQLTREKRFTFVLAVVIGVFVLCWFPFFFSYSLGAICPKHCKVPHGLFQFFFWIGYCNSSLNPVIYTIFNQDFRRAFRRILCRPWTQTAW
The experiment in a line: Radioligand binding, adrenergic α2B (Protocol Group B). The following applies: Protocol Group B; for Percentage inhibition of ligand binding, Adrenergic α2B (10 nM): 0.01 µM; for Percentage inhibition of ligand binding, Adrenergic α2B (30 nM): 0.03 µM. In short, it runs like this:
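Compounds at various concentrations in 1% DMSO were tested on recombinant membranes in Tris-HCl pH 7.4 buffer containing MgCl2, CaCl2 and 0.2% BSA.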

Assay [2] has as its target T2, Human adrenergic α2A receptor (Homo sapiens, UniProt P08913).
T2 sequence (P08913 1-465): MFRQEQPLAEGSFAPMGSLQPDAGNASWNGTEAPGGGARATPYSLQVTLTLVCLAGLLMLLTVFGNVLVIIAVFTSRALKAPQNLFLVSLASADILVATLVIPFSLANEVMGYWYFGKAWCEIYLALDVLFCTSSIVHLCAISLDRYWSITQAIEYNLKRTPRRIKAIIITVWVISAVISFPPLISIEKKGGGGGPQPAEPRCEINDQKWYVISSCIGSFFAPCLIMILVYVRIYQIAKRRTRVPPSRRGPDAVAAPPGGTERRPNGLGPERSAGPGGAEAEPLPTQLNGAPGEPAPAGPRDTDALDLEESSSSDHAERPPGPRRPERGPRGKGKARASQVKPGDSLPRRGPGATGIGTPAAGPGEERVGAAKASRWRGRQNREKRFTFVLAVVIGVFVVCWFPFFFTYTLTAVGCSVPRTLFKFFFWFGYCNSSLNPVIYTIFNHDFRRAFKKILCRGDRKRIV
The experiment in a line: Radioligand binding, adrenergic α2A (Protocol Group B). The following applies: Protocol Group B; for inhibition at 0.1 µM / Percentage inhibition of ligand binding, Adrenergic α2A (0.1 μM): 0.1 μM compound; for inhibition at 0.1 µM: read-out: Percentage inhibition of ligand binding, Adrenergic α2A (0.1 μM); for inhibition at 0.3 µM / Percentage inhibition of ligand binding, Adrenergic α2A (0.3 μM): 0.3 μM compound; for inhibition at 0.3 µM: read-out: Percentage inhibition of ligand binding, Adrenergic α2A (0.3 μM). In short, it runs like this: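 Compounds (1% DMSO vehicle, various concentrations) competed against 2 nM [^3H]MK-912 on recombinant receptor membranes for 60 min at 25° C, Tris-HCl pH 7.4 buffer with Mg2+, Ca2+, BSA. Bound radioligand filtered and counted; 10 μM rauwolscine set nonspecific binding. Values: percent inhibition of specific binding or estimated Ki.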

Assay [3] deals with T3, Human adrenergic α1B receptor (Homo sapiens, UniProt P35368).
T3 sequence (P35368 1-520): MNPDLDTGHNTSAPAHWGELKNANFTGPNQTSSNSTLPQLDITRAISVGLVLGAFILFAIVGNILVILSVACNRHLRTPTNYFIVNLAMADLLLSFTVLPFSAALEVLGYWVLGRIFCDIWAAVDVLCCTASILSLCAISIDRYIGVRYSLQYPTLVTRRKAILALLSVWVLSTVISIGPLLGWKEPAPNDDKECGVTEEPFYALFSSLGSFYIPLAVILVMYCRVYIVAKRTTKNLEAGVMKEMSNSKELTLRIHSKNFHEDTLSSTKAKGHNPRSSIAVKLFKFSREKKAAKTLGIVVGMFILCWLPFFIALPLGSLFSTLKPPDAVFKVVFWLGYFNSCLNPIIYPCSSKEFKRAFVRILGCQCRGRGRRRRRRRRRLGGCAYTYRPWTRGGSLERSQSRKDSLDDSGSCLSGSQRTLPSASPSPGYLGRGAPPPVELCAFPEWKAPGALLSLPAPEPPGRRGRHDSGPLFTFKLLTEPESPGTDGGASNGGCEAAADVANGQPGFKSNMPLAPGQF
The experiment in a line: Radioligand binding, adrenergic α1B (Protocol Group B). Particulars: Protocol Group B; for inhibition at 0.1 µM / Percentage inhibition of ligand binding, Adrenergic α1B (0.1 μM): 0.1 μM compound; for inhibition at 0.1 µM: read-out: Percentage inhibition of ligand binding, Adrenergic α1B (0.1 μM); for inhibition at 0.3 µM / Percentage inhibition of ligand binding, Adrenergic α1B (0.3 μM): 0.3 μM compound; for inhibition at 0.3 µM: read-out: Percentage inhibition of ligand binding, Adrenergic α1B (0.3 μM). An outline of the steps: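 Values are percent inhibition of specific [3H]prazosin (0.3 nM) binding or estimated Ki, from filtration counting. Human α1B recombinant membranes, Tris-HCl pH 7.4 buffer with MgCl2 and EDTA, 60 min at 25 °C, 1% DMSO vehicle; 10 μM prazosin defined nonspecific binding.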

On to `CN1CCc2c(c3cccc(Cl)c3n2CC(O)c2cccnc2)C1` (centres unmarked) [compound 20, 2-(6-chloro-2-methyl-3,4-dihydro-1H-pyrido[4,3-b]indol-5-(2H)-yl)-1-(pyridin-3-yl)ethanol], for which, in assay [1] (10 nM compound, read-out: Percentage inhibition of ligand binding, Adrenergic α2B (10 nM)), the inhibition (usually the change of the read-out against control, counted positive when it falls) at 0.01 µM was found to be 6%. In addition, the inhibition at 0.03 µM in assay [1] (30 nM compound, read-out: Percentage inhibition of ligand binding, Adrenergic α2B (30 nM)) turned out to be 35%. Also, the inhibition at 0.1 µM in assay [1] (0.1 μM compound, read-out: Percentage inhibition of ligand binding, Adrenergic α2B (0.1 μM)) was determined as 54%; in assay [2], 12%; in assay [3], 10%. Moreover, the results for the inhibition at 0.3 µM in assay [2] and in assay [3] were 23% and 15%, respectively.
Take `Cc1ccc2c(c1)c1c(n2CC(C)(O)c2cccnc2)CC2CCCN2C1` (centres unmarked) [38d]: the “Percentage inhibition of ligand binding, Adrenergic α2B (10 nM)” value (shortened to “Percentage inhibition … (10 nM)”) in assay [1] (10 nM compound) is recorded as 1%. Further, in assay [1] (30 nM compound), the “Percentage inhibition of ligand binding, Adrenergic α2B (30 nM)” value (“Percentage inhibition … (30 nM)” below) was determined as 14%. For the same compound, the “Percentage inhibition of ligand binding, Adrenergic α2B (0.1 μM)” value in assay [1] (0.1 μM compound) was 22%. Besides, in assay [2], the “Percentage inhibition of ligand binding, Adrenergic α2A (0.1 μM)” value is listed as −4% and the “Percentage inhibition of ligand binding, Adrenergic α2A (0.3 μM)” value worked out at 3%. In addition, in assay [3], the “Percentage inhibition of ligand binding, Adrenergic α1B (0.1 μM)” value is 1% and the “Percentage inhibition of ligand binding, Adrenergic α1B (0.3 μM)” value is recorded as 12%.
For the compound `CC(O)(Cn1c2c(c3cc(F)cc(Cl)c31)C1CCCN1CC2)c1cccnc1` (single isomer, unassigned) [89b], in assay [1] (10 nM compound), the “Percentage inhibition … (10 nM)” value stood at 0%. Also, the “Percentage inhibition … (30 nM)” value in assay [1] (30 nM compound) turned out to be 1%. Also, in assay [2], the “Percentage inhibition of ligand binding, Adrenergic α2A (0.1 μM)” value was 8% and the “Percentage inhibition of ligand binding, Adrenergic α2A (0.3 μM)” value came to 6%. In assay [3], the “Percentage inhibition of ligand binding, Adrenergic α1B (0.1 μM)” value came out at 3% and the “Percentage inhibition of ligand binding, Adrenergic α1B (0.3 μM)” value is 9%.
`Cc1cc2c3c(n(CC(C)(O)c4ccncc4)c2cc1Cl)CCN1CCCC31` (single isomer, unassigned) [50c]: the “Percentage inhibition … (10 nM)” value in assay [1] (10 nM compound) was 15%. Also, the “Percentage inhibition … (30 nM)” value in assay [1] (30 nM compound) is listed as 42%. Moreover, the “Percentage inhibition of ligand binding, Adrenergic α2B (0.1 μM)” value in assay [1] (0.1 μM compound) came to 91%. Moreover, in assay [2], the “Percentage inhibition of ligand binding, Adrenergic α2A (0.1 μM)” value was found to be 22% and the “Percentage inhibition of ligand binding, Adrenergic α2A (0.3 μM)” value amounted to 49%. In addition, in assay [3], the “Percentage inhibition of ligand binding, Adrenergic α1B (0.1 μM)” value amounted to 19% and the “Percentage inhibition of ligand binding, Adrenergic α1B (0.3 μM)” value came out at 43%.
In the case of `CC(O)(Cn1c2c(c3cc(F)cc(Cl)c31)C1CCCN1CC2)c1cccnc1` (single isomer, unassigned) [89a], the “Percentage inhibition … (10 nM)” value in assay [1] (10 nM compound) is on record as −9%. The “Percentage inhibition … (30 nM)” value in assay [1] (30 nM compound) is −9%. In assay [2], the “Percentage inhibition of ligand binding, Adrenergic α2A (0.1 μM)” value is 23% and the inhibition at 0.3 µM was found to be 9%. Moreover, in assay [3], the “Percentage inhibition of ligand binding, Adrenergic α1B (0.1 μM)” value came to 12% and the inhibition at 0.3 µM amounted to 13%.
Consider `Cc1cc(F)c2c(c1)c1c(n2CC(O)c2ccncc2)CCN2CCCC12` (single isomer, unassigned) [137d], for which, in assay [1] (10 nM compound), the “Percentage inhibition … (10 nM)” value is 21%. In addition, in assay [1] (30 nM compound), the “Percentage inhibition … (30 nM)” value is 24%. In assay [2], the “Percentage inhibition of ligand binding, Adrenergic α2A (0.1 μM)” value worked out at 15% and the “Percentage inhibition of ligand binding, Adrenergic α2A (0.3 μM)” value was determined as 16%. For the same compound, in assay [3], the “Percentage inhibition of ligand binding, Adrenergic α1B (0.1 μM)” value is 19% and the “Percentage inhibition of ligand binding, Adrenergic α1B (0.3 μM)” value turned out to be 18%.
`Cc1ccc2c(c1)c1c(n2CC(C)(O)c2ccncc2)CC2CCCN2C1` (single isomer, unassigned) [37c]: the “Percentage inhibition … (10 nM)” value in assay [1] (10 nM compound) worked out at 19%. The “Percentage inhibition … (30 nM)” value in assay [1] (30 nM compound) is recorded as 46%. The “Percentage inhibition of ligand binding, Adrenergic α2B (0.1 μM)” value in assay [1] (0.1 μM compound) was 73%. In assay [2], the “Percentage inhibition of ligand binding, Adrenergic α2A (0.1 μM)” value is on record as −2% and the “Percentage inhibition of ligand binding, Adrenergic α2A (0.3 μM)” value is reported as 14%. In assay [3], the “Percentage inhibition of ligand binding, Adrenergic α1B (0.1 μM)” value came to 15% and the “Percentage inhibition of ligand binding, Adrenergic α1B (0.3 μM)” value is reported as 37%.
Consider `Cc1cc(Cl)c2c(c1)c1c(n2CC(O)c2ccncc2)CCN2CCCC12` (single isomer, unassigned) [142b], for which the “Percentage inhibition … (30 nM)” value in assay [1] (30 nM compound) was found to be 100%. Moreover, in assay [2], the “Percentage inhibition of ligand binding, Adrenergic α2A (0.1 μM)” value stood at 95%. The “Percentage inhibition of ligand binding, Adrenergic α1B (0.1 μM)” value in assay [3] was 76%.
`Cc1ccc2c(c1)c1c(n2CC(C)(O)c2cccnc2)CC2CCC1N2C` (single isomer, unassigned) [101a]: in assay [1] (Ki α2B, estimated Ki), the Ki (as a rule, a measure of affinity in units of concentration, obtained from inhibition or displacement) was 16.2 nM. Besides, the inhibition at 0.01 µM in assay [1] (read-out: Percentage inhibition of ligand binding, Adrenergic α2B (10 nM), 10 nM compound) came out at 23%. Besides, the inhibition at 0.03 µM in assay [1] (read-out: Percentage inhibition of ligand binding, Adrenergic α2B (30 nM), 30 nM compound) was determined as 38%. The inhibition at 0.1 µM in assay [1] (read-out: Percentage inhibition of ligand binding, Adrenergic α2B (0.1 μM), 0.1 μM compound) was 71%; in assay [2], 7%; in assay [3], 6%. The inhibition at 0.3 µM was 21% in assay [2] and 17% in assay [3].
Turning to `Cc1cc(F)cc2c3c(n(CC(C)(O)c4cccnc4)c12)CC1CCCN1C3` (single isomer, unassigned) [76a], the “Percentage inhibition … (10 nM)” value in assay [1] (10 nM compound) amounted to 12%. Further, the “Percentage inhibition … (30 nM)” value in assay [1] (30 nM compound) is 21%. The “Percentage inhibition of ligand binding, Adrenergic α2B (0.1 μM)” value in assay [1] (0.1 μM compound) is 53%. In addition, in assay [2], the “Percentage inhibition of ligand binding, Adrenergic α2A (0.1 μM)” value is recorded as −3% and the “Percentage inhibition of ligand binding, Adrenergic α2A (0.3 μM)” value stood at 12%. Besides, in assay [3], the “Percentage inhibition of ligand binding, Adrenergic α1B (0.1 μM)” value is −8% and the “Percentage inhibition of ligand binding, Adrenergic α1B (0.3 μM)” value was 11%.
As for `Cc1cc(F)cc2c3c(n(CC(C)(O)c4ccncc4)c12)CC1CCCN1C3` (single isomer, unassigned) [78a], the “Percentage inhibition … (10 nM)” value in assay [1] (10 nM compound) is on record as −1%. The “Percentage inhibition … (30 nM)” value in assay [1] (30 nM compound) was −1%. The “Percentage inhibition of ligand binding, Adrenergic α2B (0.1 μM)” value in assay [1] (0.1 μM compound) is 5%. Besides, in assay [2], the “Percentage inhibition of ligand binding, Adrenergic α2A (0.1 μM)” value is −11% and the “Percentage inhibition of ligand binding, Adrenergic α2A (0.3 μM)” value is listed as −7%. Besides, in assay [3], the “Percentage inhibition of ligand binding, Adrenergic α1B (0.1 μM)” value amounted to 2% and the “Percentage inhibition of ligand binding, Adrenergic α1B (0.3 μM)” value came out at 12%.
